Laboratory results published in patent US12006328B2, “Thieno[2,3-d]pyrimidin-4-one derivatives as NMDAR modulators and uses related thereto” (Emory University, priority 2014, dated 2024).

Assays:
Assay type in all cases: cell-based
[1] = target: GluN2B-containing NMDA receptors (Homo sapiens, UniProt Q13224); test: Two-electrode voltage-clamp recordings from Xenopus laevis oocytes, GluN2B; settings: for I10 μM/ICONTROL (mean ± SEM, %) Glu N2B: 10 μM test compound with glutamate 100 μM and glycine 30 μM, Tables 1-5; for I10 μM/ICONTROL (mean ± SEM, %) Glu N2B / maximal potentiation Glu N2B: percent of response without compound; for EC50 / maximal potentiation Glu N2B: Table 1; for EC50: glutamate 100 μM, glycine 30 μM, Hill fit, read-out: EC50 Glu N2B; for maximal potentiation Glu N2B: in brackets after EC50
Description: (§1) Xenopus laevis oocytes were injected with cRNA encoding the NMDA receptor subunits. Two to seven days after injection, two-electrode voltage-clamp recordings were performed. Extracellular solutions were made from a solutions containing (in mM) 90 NaCl, 3 KCl, 10 HEPES, 0.5 BaCl2, 0.01 EDTA (pH 7.4 with NaOH). Voltage and current electrodes were filled with 0.3 M and 3.0 M KCl, respectively.
(§2) Potency was determined by adding increasing concentrations of test compound to saturating concentrations of glutamate (100 μM) and glycine (30 μM), and the response amplitude measured. The response in the presence of each concentration of test compound plus agonists was expressed as a percent of the response in the absence of test compound.

[2] = target: GluN2D-containing NMDA receptors (Homo sapiens, UniProt O15399); test: Two-electrode voltage-clamp recordings from Xenopus laevis oocytes, GluN2D; settings: for I10 μM/ICONTROL (mean ± SEM, %) Glu N2D: 10 μM test compound with glutamate 100 μM and glycine 30 μM, Tables 1-5; for I10 μM/ICONTROL (mean ± SEM, %) Glu N2D / maximal potentiation Glu N2D: percent of response without compound; for EC50 / maximal potentiation Glu N2D: Table 1; for EC50: glutamate 100 μM, glycine 30 μM, Hill fit, read-out: EC50 Glu N2D; for maximal potentiation Glu N2D: in brackets after EC50
Description: as §1, §2

[3] = target: GluN2C-containing NMDA receptors (Homo sapiens, UniProt Q14957); test: Two-electrode voltage-clamp recordings from Xenopus laevis oocytes, GluN2C; settings: for I10 μM/ICONTROL (mean ± SEM, %) Glu N2C: 10 μM test compound with glutamate 100 μM and glycine 30 μM, Tables 1-5; for I10 μM/ICONTROL (mean ± SEM, %) Glu N2C / maximal potentiation Glu N2C: percent of response without compound; for EC50 / maximal potentiation Glu N2C: Table 1; for EC50: glutamate 100 μM, glycine 30 μM, Hill fit, read-out: EC50 Glu N2C; for maximal potentiation Glu N2C: in brackets after EC50
Description: as §1, §2

Chain of GluN2D-containing NMDA receptors (O15399 28-1336, other chains not shown): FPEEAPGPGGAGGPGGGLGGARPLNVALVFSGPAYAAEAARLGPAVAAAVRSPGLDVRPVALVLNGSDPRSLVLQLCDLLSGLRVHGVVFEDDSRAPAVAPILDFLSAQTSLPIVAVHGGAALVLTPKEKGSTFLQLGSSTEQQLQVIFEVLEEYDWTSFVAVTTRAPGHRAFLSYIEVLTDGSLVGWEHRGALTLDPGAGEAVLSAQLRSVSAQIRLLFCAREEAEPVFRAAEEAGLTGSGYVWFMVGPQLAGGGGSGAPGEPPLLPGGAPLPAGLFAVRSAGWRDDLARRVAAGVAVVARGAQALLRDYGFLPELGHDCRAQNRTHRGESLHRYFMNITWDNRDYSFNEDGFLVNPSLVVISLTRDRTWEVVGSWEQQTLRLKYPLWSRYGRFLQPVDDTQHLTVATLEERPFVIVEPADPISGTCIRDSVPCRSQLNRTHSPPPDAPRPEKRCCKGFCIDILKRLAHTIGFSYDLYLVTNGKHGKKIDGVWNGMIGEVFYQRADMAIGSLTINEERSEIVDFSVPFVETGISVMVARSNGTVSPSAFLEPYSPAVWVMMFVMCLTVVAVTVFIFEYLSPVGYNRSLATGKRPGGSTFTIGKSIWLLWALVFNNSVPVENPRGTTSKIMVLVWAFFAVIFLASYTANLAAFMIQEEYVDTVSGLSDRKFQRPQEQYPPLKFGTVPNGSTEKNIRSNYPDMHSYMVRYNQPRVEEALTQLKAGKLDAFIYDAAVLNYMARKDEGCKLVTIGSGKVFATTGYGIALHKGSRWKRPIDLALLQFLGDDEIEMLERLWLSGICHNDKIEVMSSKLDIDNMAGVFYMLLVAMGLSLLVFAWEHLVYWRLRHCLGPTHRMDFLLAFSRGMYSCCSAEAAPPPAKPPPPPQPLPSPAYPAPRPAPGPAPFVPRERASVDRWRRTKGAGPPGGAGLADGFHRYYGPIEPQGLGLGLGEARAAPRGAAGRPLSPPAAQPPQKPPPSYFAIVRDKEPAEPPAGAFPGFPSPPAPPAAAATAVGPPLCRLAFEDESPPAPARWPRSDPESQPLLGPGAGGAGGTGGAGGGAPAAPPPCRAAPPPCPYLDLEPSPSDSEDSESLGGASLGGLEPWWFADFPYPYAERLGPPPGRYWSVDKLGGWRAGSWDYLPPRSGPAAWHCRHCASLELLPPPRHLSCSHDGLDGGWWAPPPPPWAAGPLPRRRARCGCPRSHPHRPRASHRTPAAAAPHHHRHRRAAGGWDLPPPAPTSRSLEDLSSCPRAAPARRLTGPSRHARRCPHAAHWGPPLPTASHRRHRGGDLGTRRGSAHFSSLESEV
Chain of GluN2B-containing NMDA receptors (Q13224 27-1484, other chains not shown): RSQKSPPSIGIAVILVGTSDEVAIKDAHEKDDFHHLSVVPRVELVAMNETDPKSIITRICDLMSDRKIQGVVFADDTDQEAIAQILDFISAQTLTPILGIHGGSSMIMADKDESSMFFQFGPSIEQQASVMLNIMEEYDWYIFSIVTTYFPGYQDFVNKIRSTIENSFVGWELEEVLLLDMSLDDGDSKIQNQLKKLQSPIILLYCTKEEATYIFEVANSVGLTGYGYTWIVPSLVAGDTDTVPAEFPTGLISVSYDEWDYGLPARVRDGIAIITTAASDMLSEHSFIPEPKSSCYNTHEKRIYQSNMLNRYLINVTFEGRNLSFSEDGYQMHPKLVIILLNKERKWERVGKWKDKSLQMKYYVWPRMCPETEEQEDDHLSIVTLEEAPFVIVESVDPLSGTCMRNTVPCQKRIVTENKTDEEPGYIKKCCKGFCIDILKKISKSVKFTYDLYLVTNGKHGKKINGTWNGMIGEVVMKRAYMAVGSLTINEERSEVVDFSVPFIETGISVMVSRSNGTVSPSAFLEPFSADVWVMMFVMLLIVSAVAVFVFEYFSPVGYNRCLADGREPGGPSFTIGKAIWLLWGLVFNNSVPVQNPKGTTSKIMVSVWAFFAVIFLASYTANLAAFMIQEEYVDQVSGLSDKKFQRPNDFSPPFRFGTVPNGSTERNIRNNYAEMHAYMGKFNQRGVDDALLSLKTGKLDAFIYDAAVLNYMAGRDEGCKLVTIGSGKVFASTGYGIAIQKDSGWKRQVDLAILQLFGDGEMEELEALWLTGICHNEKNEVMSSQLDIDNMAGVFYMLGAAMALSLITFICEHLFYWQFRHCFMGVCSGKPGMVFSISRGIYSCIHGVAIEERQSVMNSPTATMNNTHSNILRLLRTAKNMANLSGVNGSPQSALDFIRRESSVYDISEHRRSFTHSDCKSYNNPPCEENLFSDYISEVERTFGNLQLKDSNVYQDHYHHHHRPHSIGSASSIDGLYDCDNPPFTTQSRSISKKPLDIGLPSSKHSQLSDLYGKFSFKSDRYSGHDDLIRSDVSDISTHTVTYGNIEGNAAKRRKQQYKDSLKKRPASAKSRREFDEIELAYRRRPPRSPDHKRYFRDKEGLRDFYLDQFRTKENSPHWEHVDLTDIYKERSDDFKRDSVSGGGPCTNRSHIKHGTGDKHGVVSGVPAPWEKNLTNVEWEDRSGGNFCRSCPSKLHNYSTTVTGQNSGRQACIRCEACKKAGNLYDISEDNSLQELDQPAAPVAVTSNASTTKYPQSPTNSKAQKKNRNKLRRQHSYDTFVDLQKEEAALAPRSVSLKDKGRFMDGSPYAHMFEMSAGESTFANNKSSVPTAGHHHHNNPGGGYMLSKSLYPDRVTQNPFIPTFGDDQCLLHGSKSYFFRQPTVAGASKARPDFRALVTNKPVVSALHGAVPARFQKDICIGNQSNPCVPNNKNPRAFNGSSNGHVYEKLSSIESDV
Chain of GluN2C-containing NMDA receptors (Q14957 20-1233, other chains not shown): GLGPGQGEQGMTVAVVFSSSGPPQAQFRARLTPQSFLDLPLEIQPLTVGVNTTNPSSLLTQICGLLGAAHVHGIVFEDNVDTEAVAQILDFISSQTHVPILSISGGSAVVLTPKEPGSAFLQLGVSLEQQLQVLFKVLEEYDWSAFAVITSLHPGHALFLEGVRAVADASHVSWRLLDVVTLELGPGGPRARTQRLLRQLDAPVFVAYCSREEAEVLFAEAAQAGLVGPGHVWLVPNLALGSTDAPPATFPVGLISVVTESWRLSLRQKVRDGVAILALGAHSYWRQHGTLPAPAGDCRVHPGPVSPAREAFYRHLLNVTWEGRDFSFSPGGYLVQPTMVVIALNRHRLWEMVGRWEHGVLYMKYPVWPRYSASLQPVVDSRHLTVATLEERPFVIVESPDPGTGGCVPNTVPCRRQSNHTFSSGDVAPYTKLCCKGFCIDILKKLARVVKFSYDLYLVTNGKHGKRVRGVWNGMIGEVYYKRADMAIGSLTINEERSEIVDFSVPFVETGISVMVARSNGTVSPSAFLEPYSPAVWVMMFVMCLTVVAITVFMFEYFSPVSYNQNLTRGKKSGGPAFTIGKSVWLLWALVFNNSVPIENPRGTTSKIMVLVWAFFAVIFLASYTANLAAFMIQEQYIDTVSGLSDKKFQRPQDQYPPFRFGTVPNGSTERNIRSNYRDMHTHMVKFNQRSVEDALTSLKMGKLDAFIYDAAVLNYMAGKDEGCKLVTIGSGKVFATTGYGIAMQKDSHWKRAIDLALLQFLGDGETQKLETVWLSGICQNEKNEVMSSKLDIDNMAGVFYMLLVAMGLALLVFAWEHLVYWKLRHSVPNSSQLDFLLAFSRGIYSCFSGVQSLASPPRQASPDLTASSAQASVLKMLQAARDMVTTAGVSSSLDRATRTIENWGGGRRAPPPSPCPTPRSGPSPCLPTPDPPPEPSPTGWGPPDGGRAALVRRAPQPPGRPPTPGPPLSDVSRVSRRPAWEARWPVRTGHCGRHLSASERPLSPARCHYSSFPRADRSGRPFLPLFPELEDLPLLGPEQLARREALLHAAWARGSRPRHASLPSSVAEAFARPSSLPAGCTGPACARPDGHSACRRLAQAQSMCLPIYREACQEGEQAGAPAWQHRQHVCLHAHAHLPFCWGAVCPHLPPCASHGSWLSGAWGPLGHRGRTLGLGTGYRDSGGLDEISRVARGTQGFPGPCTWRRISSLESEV

Compound | I10 μM/ICONTROL (mean ± SEM, %) Glu N2B [1] [%] | I10 μM/ICONTROL (mean ± SEM, %) Glu N2D [2] [%] | I10 μM/ICONTROL (mean ± SEM, %) Glu N2C [3] [%] | EC50 [1] [µM] | maximal potentiation Glu N2B [1] [%] | EC50 [2] [µM] | maximal potentiation Glu N2D [2] [%] | EC50 [3] [µM] | maximal potentiation Glu N2C [3] [%]
COc1ccc(C(=O)Cn2cnc3sc4c(c3c2=O)CCCC4)c(OC)c1 [2,4-OMe] | 95 ± 1.8 | 90 ± 0.7 | 94 ± 1.4 | – | – | – | – | – | –
Cc1sc2ncn(CC(=O)N3CCCC3)c(=O)c2c1-c1ccccc1C(F)(F)F [2-CF3—Ph / Me] | 93 ± 2.0 | 94 ± 1.4 | 95 ± 2.1 | – | – | – | – | – | –
Cc1sc2ncn(CC(=O)N3CCCC3)c(=O)c2c1-c1ccc2c(c1)CCC2 [3,4-(CH2)3—Ph / Me] | 176 ± 6.2 | 165 ± 3.4 | 185 ± 11.4 | 11.5 | 275 | 48 | 580 | 26 | 475
Cc1sc2ncn(CC(=O)N3CCCC3)c(=O)c2c1-c1ccc(Br)c(Br)c1 [3,4-Br—Ph / Me] | 188 ± 9.3 | 292 ± 13.7 | 281 ± 17.7 | 5.2 | 223 | 30 | 1205 | 13 | 561
Cc1ccc(-c2c(C)sc3ncn(CC(=O)N4CCCC4)c(=O)c23)cc1C [3,4-Me—Ph / Me] | – | – | – | 7.9 | 192 | 18 | 229 | 27 | 267
Cc1sc2ncn(CC(=O)N3CCCC3)c(=O)c2c1-c1cc(Br)cc(Br)c1 [3,5-Br—Ph / Me] | 156 ± 5.2 | 230 ± 13.5 | 195 ± 6.9 | 1.08 | 143 | 3.86 | 202 | 2.2 | 195
Cc1sc2ncn(CC(=O)N3CCCC3)c(=O)c2c1-c1cc(C(F)(F)F)cc(C(F)(F)F)c1 [3,5-CF3—Ph / Me] | 101 ± 4.5 | 103 ± 1.1 | 115 ± 5.5 | – | – | – | – | – | –
Cc1sc2ncn(CC(=O)N3CCCC3)c(=O)c2c1-c1cc(F)cc(F)c1 [3,5-F—Ph / Me] | 107 ± 2.7 | 116 ± 4.4 | 114 ± 0.9 | 96 | 229 | 204 | 748 | 132 | 458
Cc1sc2ncn(CC(=O)N3CCCC3)c(=O)c2c1-c1cc(I)cc(I)c1 [3,5-I—Ph / Me] | 152 ± 8.8 | 151 ± 6.3 | 167 ± 9.6 | 20 | 259 | 32 | 432 | 35 | 493
Cc1sc2ncn(CC(=O)N3CCCC3)c(=O)c2c1-c1cccc(-n2cncn2)c1 [3-1,2,4 triazolyl-Ph / Me] | 110 ± 2.6 | 108 ± 6.2 | 113 ± 5.8 | 293 | 402 | 108 | 239 | 44 | 308
Cc1sc2ncn(CC(=O)N3CCCC3)c(=O)c2c1-c1cccc(Br)c1 [3-Br—Ph / Me] | 172 ± 8.7 | 239 ± 11.5 | 241 ± 19.7 | 11 | 266 | 21 | 687 | 17 | 568
Cc1sc2ncn(CC(=O)N3CCCC3)c(=O)c2c1-c1cccc(C(F)(F)F)c1 [3-CF3—Ph / Me] | 211 ± 11.3 | 480 ± 74.3 | 368 ± 29.0 | 6 | 282 | 25 | 1735 | 13 | 748
Cc1sc2ncn(CC(=O)N3CCCC3)c(=O)c2c1-c1cccc(C#N)c1 [3-CN—Ph / Me] | 147 ± 4.1 | 177 ± 6.2 | 190 ± 4.2 | – | – | – | – | – | –
Cc1sc2ncn(CC(=O)N3CCCC3)c(=O)c2c1-c1cccc(Cl)c1 [3-Cl—Ph / Me] | 170 ± 4.7 | 190 ± 6.3 | 211 ± 14.7 | 16 | 301 | 37 | 830 | 36 | 877
Cc1sc2ncn(CC(=O)N3CCCC3)c(=O)c2c1-c1cccc(I)c1 [3-I—Ph / Me] | 246 ± 14.9 | 364 ± 31.6 | 401 ± 36.4 | 3.7 | 249 | 15 | 1068 | 7.6 | 622
Cc1sc2ncn(CC(=O)N3CCCC3)c(=O)c2c1-c1cccc(N=[N+]=[N-])c1 [3-N3—Ph / Me] | 176 ± 8.1 | 175 ± 9.4 | 264 ± 17.7 | 23.8 | 295 | 10 | 592 | 10 | 613
Cc1sc2ncn(CC(=O)N3CCCC3)c(=O)c2c1-c1cccc(-n2ccnc2)c1 [3-N-imidazolyl-Ph / Me] | 120 ± 5.8 | 99 ± 3.4 | 112 ± 1.3 | 102 | 261 | 80 | 207 | 191 | 453
Cc1sc2ncn(CC(=O)N3CCCC3)c(=O)c2c1-c1cccc([N+](=O)[O-])c1 [3-NO2—Ph / Me] | 185 ± 4.8 | 253 ± 13.3 | 321 ± 13.6 | 12 | 304 | 60 | 1860 | 36 | 1483
Cc1sc2ncn(CC(=O)N3CCCC3)c(=O)c2c1-c1ccc(OCc2ccccc2)cc1 [4-BnO—Ph / Me] | 118 ± 5.2 | 131 ± 3.7 | 135 ± 5.4 | 11 | 147 | 25 | 291 | 35 | 392
